According to the supplement of paper PMC6331611:
Values after ≈ are worked out from the molar mass of the structure shown. Counter-ions that a name gives are not always drawn.

Assays:
[1] = test system: Salmonella enterica serovar Typhimurium SL1344
[2] = test system: Salmonella enterica serovar Typhimurium SL1344; test: intracellular MIC (10-fold luminescence reduction); higher = less potent; conditions: RAW264.7 macrophages
[3] = test system: RAW264.7; test: cytotoxicity (LDH release relative to maximum lysis); higher = more toxic; conditions: 50 µM; 2 h

| Structure (SMILES) | MIC ([1]; LPM pH 5.8) | MIC ([1]; MHB) | MIC ([1]; MOPS glucose minimal medium) | intracellular MIC [2] | cytotoxicity [3] |
| --- | --- | --- | --- | --- | --- |
| CCOc1ccc(Cc2nccc3cc(OCC)c(OCC)cc23)cc1OCC [ETHAVERINE HYDROCHLORIDE] | > 50 µM | > 50 µM | > 50 µM | > 50 µM | 12.8% |
| O.O.O=C([O-])CN(CCN(CC(=O)[O-])CC(=O)O)CC(=O)O.[Na+].[Na+] [EDETATE DISODIUM] | > 50 µM | > 50 µM | 50 µM | > 50 µM | 19.1% |
| Cc1ccc(Cl)c(Nc2ccccc2C(=O)O)c1Cl [MECLOFENAMATE SODIUM] | > 50 µM | > 50 µM | > 50 µM | > 50 µM | 7.81% |
| CC(C)NCC(O)COc1cccc2[nH]ccc12 (centres undefined) [PINDOLOL] | > 50 µM | > 50 µM | > 50 µM | 1.56 µM | 7.73% |
| O=C(CCCN1CCC2(CC1)C(=O)NCN2c1ccccc1)c1ccc(F)cc1 [SPIPERONE] | > 50 µM | > 50 µM | > 50 µM | > 50 µM | 20.9% |
| CCCCc1nc(Cl)c(CO)n1Cc1ccc(-c2ccccc2-c2nnn[nH]2)cc1 [LOSARTAN] | > 50 µM | > 50 µM | > 50 µM | > 50 µM | 5.92% |
| O=[N+]([O-])c1ccc(O)c2ncccc12 [NITROXOLINE] | ≤ 0.78 µM | 25 µM (≈ 4.75 µg/mL) | 6.25 µM (≈ 1.19 µg/mL) | > 50 µM | 14.6% |
| CC[C@H]1OC(=O)[C@H](C)[C@@H](O[C@H]2C[C@@](C)(OC)[C@@H](O)[C@H](C)O2)[C@H](C)[C@@H](O[C@@H]2O[C@H](C)C[C@H](N(C)C)[C@H]2O)[C@](C)(O)C[C@@H](C)C(=O)[C@H](C)[C@@H](O)[C@]1(C)O [ERYTHROMYCIN] | > 50 µM | > 50 µM | > 50 µM | 1.56 µM | 6.32% |
| COc1c(N2C[C@@H]3CCCN[C@@H]3C2)c(F)cc2c(=O)c(C(=O)O)cn(C3CC3)c12 [MOXIFLOXACIN HYDROCHLORIDE] | > 50 µM | > 50 µM | > 50 µM | > 50 µM | 24.3% |
| CN(C)C(=O)Oc1ccc[n+](C)c1 [PYRIDOSTIGMINE BROMIDE] | > 50 µM | > 50 µM | > 50 µM | > 50 µM | 6.09% |
| CO/N=C(\C(=O)N[C@@H]1C(=O)N2C(C(=O)O)=C(CSC(=O)c3ccco3)CS[C@H]12)c1csc(N)n1 [CEFTIOFUR HYDROCHLORIDE] | ≤ 0.78 µM | ≤ 0.78 µM | ≤ 0.78 µM | ≤ 0.78 µM | 15.6% |
| Cc1ccc(Nc2c(F)cccc2Cl)c(CC(=O)O)c1 [LUMIRACOXIB] | > 50 µM | > 50 µM | > 50 µM | ≤ 0.78 µM | 7.05% |
| CC1CCc2c(N3CCC(O)CC3)c(F)cc3c(=O)c(C(=O)O)cn1c23 (centres undefined) [NADIFLOXACIN] | ≤ 0.78 µM | 3.13 µM (≈ 1.13 µg/mL) | 1.56 µM (≈ 0.562 µg/mL) | 1.56 µM | 12.7% |
| Oc1c(Cl)cc(Cl)c2cccnc12 [CHLOROXINE] | ≤ 0.78 µM | 25 µM (≈ 5.35 µg/mL) | 25 µM (≈ 5.35 µg/mL) | > 50 µM | 20.5% |
| CN1CCN(c2cc3c(cc2F)c(=O)c(C(=O)O)cn3-c2ccc(F)cc2)CC1 [DIFLOXACIN HYDROCHLORIDE] | ≤ 0.78 µM | ≤ 0.78 µM | ≤ 0.78 µM | 1.56 µM | 6.88% |
| COc1ccc2cc1Oc1ccc(cc1)C[C@H]1c3c(cc4c(c3Oc3cc5c(cc3OC)CCN(C)[C@@H]5C2)OCO4)CCN1C [CEPHARANTHINE] | > 50 µM | > 50 µM | > 50 µM | > 50 µM | 13.1% |

| Structure (SMILES) | MIC ([1]; LPM pH 5.8) | MIC ([1]; MHB) | MIC ([1]; MOPS glucose minimal medium) | intracellular MIC [2] | cytotoxicity [3] |
| --- | --- | --- | --- | --- | --- |
| CNCCCC12CCC(c3ccccc31)c1ccccc12 [MAPROTILINE HYDROCHLORIDE] | > 50 µM | > 50 µM | > 50 µM | 3.13 µM | 34% |
| CC(C)NC(=N)NC(=N)Nc1ccc(Cl)cc1 [CHLOROGUANIDE HYDROCHLORIDE] | > 50 µM | > 50 µM | > 50 µM | > 50 µM | 6.72% |
| Nc1ncn([C@@H]2O[C@H](CO)[C@@H](O)[C@H]2O)c(=O)n1 [AZACITIDINE] | ≤ 0.78 µM | 25 µM (≈ 6.11 µg/mL) | ≤ 0.78 µM | ≤ 0.78 µM | 16.4% |
| C=C1c2cccc(O)c2C(=O)C2=C(O)[C@]3(O)C(=O)C(C(N)=O)=C(O)[C@@H](N(C)C)[C@@H]3[C@@H](O)[C@H]12 [METHACYCLINE HYDROCHLORIDE] | ≤ 0.78 µM | 6.25 µM | 3.13 µM | 3.13 µM | 13.8% |
| O=C(O)c1cn(C2CC2)c2cc(N3CCNCC3)c(F)cc2c1=O [CIPROFLOXACIN] | > 50 µM | – | ≤ 0.78 µM | ≤ 0.78 µM | 21.5% |
| CCn1cc(C(=O)O)c(=O)c2cc(F)c(N3CCNC(C)C3)c(F)c21 (centres undefined) [LOMEFLOXACIN HYDROCHLORIDE] | 1.56 µM | ≤ 0.78 µM | ≤ 0.78 µM | ≤ 0.78 µM | 15.9% |
| C[n+]1cc2c3c(ccc2c2ccc4cc5c(cc4c21)OCO5)OCO3 [SANGUINARINE SULFATE] | > 50 µM | > 50 µM | > 50 µM | 25 µM | 34.2% |
| CN(C)[C@@H]1C(O)=C(C(N)=O)C(=O)[C@@]2(O)C(O)=C3C(=O)c4c(O)cccc4[C@@](C)(O)[C@H]3[C@H](O)[C@@H]12 [OXYTETRACYCLINE] | ≤ 0.78 µM | 6.25 µM (≈ 2.88 µg/mL) | 12.5 µM (≈ 5.76 µg/mL) | 6.25 µM | 15.7% |
| CO[C@@]1(NC(=O)C2SC(=C(C(N)=O)C(=O)O)S2)C(=O)N2C(C(=O)O)=C(CSc3nnnn3C)CS[C@@H]21 (some centres undefined) [CEFOTETAN] | ≤ 0.78 µM | ≤ 0.78 µM | ≤ 0.78 µM | 1.56 µM | 7.79% |
| NCc1ccc(S(N)(=O)=O)cc1 [MAFENIDE HYDROCHLORIDE] | > 50 µM | > 50 µM | > 50 µM | 1.56 µM | 7.52% |
| CC[C@@H]1C(=O)OC[C@@H]1Cc1cncn1C [PILOCARPINE NITRATE] | > 50 µM | > 50 µM | > 50 µM | ≤ 0.78 µM | 7.24% |
| C/C(=C\C(=O)OCCCCCCCCC(=O)O)C[C@@H]1OC[C@H](C[C@@H]2O[C@H]2[C@@H](C)[C@H](C)O)[C@@H](O)[C@H]1O [MUPIROCIN] | ≤ 0.78 µM | > 50 µM | 25 µM (≈ 12.5 µg/mL) | 25 µM | 15.4% |
| CN(C)c1ccc(O)c2c1C[C@H]1C[C@H]3[C@H](N(C)C)C(O)=C(C(N)=O)C(=O)[C@@]3(O)C(O)=C1C2=O [MINOCYCLINE HYDROCHLORIDE] | ≤ 0.78 µM | 12.5 µM | 6.25 µM | 12.5 µM | 21% |
| CN1CCN(c2c(F)cc3c(=O)c(C(=O)O)cn4c3c2SCC4)CC1 [RUFLOXACIN HYDROCHLORIDE] | 6.25 µM | 1.56 µM | ≤ 0.78 µM | ≤ 0.78 µM | 13.3% |
| COc1ccc(C(=O)c2ccccc2)c(O)c1 [OXYBENZONE] | > 50 µM | > 50 µM | > 50 µM | 1.56 µM | 6.44% |
| CO[C@@H]1[C@@H](OC(N)=O)[C@@H](O)[C@H](Oc2ccc3c(O)c(NC(=O)c4ccc(O)c(CC=C(C)C)c4)c(=O)oc3c2C)OC1(C)C [NOVOBIOCIN SODIUM] | 1.17 µM | > 50 µM | > 50 µM | > 50 µM | 7.98% |
